Results published in PubChem BioAssay (NCI).
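Test compounds were applied to cells in 96-well plates for 48 hours at 5 doses. GI50 = concentration required for 50% inhibition of growth. TGI is the concentration that stops growth completely.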

How the values were obtained:
Assay in all cases: DTP human tumour cell line panel, 48 h
SF-295 CNS = test system: SF-295 CNS
SF-268 CNS = test system: SF-268 CNS
COLO 205 colon = test system: COLO 205 colon
MOLT-4 leukemia = test system: MOLT-4 leukemia
UO-31 renal = test system: UO-31 renal
HS 578T breast = test system: HS 578T breast
UACC-62 melanoma = test system: UACC-62 melanoma
HOP-92 NSCLC = test system: HOP-92 NSCLC
KM12 colon = test system: KM12 colon
BT-549 breast = test system: BT-549 breast
MALME-3M melanoma = test system: MALME-3M melanoma
SK-MEL-2 melanoma = test system: SK-MEL-2 melanoma
OVCAR-5 ovarian = test system: OVCAR-5 ovarian
RPMI-8226 leukemia = test system: RPMI-8226 leukemia
MDA-MB-468 breast = test system: MDA-MB-468 breast
CCRF-CEM leukemia = test system: CCRF-CEM leukemia
NCI-H522 lung = test system: NCI-H522 lung
SF-539 CNS = test system: SF-539 CNS
EKVX NSCLC = test system: EKVX NSCLC
SK-MEL-28 melanoma = test system: SK-MEL-28 melanoma
UACC-257 melanoma = test system: UACC-257 melanoma
SW-620 colon = test system: SW-620 colon
NCI-H460 lung = test system: NCI-H460 lung
HT29 colon = test system: HT29 colon
MDA-MB-435 = test system: MDA-MB-435
IGROV1 ovarian = test system: IGROV1 ovarian
NCI-H23 lung = test system: NCI-H23 lung
SN12C renal = test system: SN12C renal
OVCAR-8 ovarian = test system: OVCAR-8 ovarian
T-47D breast = test system: T-47D breast
RXF 393 renal = test system: RXF 393 renal
TK-10 renal = test system: TK-10 renal
SK-MEL-5 melanoma = test system: SK-MEL-5 melanoma
K-562 leukemia = test system: K-562 leukemia
HCC-2998 colon = test system: HCC-2998 colon
786-0 renal = test system: 786-0 renal
SK-OV-3 ovarian = test system: SK-OV-3 ovarian
M14 melanoma = test system: M14 melanoma
NCI/ADR-RES ovarian = test system: NCI/ADR-RES ovarian
HOP-62 NSCLC = test system: HOP-62 NSCLC
NCI-H226 lung = test system: NCI-H226 lung
SNB-19 CNS = test system: SNB-19 CNS
HCT-116 colon = test system: HCT-116 colon
U251 CNS = test system: U251 CNS
HL-60(TB) leukemia = test system: HL-60(TB) leukemia
DU-145 prostate = test system: DU-145 prostate
OVCAR-4 ovarian = test system: OVCAR-4 ovarian
SR leukemia = test system: SR leukemia
MCF7 breast = test system: MCF7 breast
SNB-75 CNS = test system: SNB-75 CNS
PC-3 prostate = test system: PC-3 prostate
MDA-MB-231 breast = test system: MDA-MB-231 breast
A498 renal = test system: A498 renal
LOX IMVI melanoma = test system: LOX IMVI melanoma
HCT-15 colon = test system: HCT-15 colon
OVCAR-3 ovarian = test system: OVCAR-3 ovarian
ACHN renal = test system: ACHN renal
CAKI-1 renal = test system: CAKI-1 renal
A549 NSCLC = test system: A549 NSCLC

Fc1ccc(/C=C/c2nc3ccccc3n3c(-c4ccc(Cl)cc4)nnc23)cc1
GI50 (SF-295 CNS): > 100 µM | TGI (SF-295 CNS): > 100 µM | GI50 (SF-268 CNS): 67.7 µM | TGI (SF-268 CNS): > 100 µM | GI50 (COLO 205 colon): 18.9 µM | TGI (COLO 205 colon): 71.4 µM | GI50 (MOLT-4 leukemia): 3.74 µM | TGI (MOLT-4 leukemia): 34.9 µM | GI50 (UO-31 renal): 14.1 µM | TGI (UO-31 renal): > 100 µM | GI50 (HS 578T breast): 29.3 µM | TGI (HS 578T breast): > 100 µM | GI50 (UACC-62 melanoma): 21 µM | TGI (UACC-62 melanoma): > 100 µM | GI50 (HOP-92 NSCLC): 24.4 µM | TGI (HOP-92 NSCLC): > 100 µM | GI50 (KM12 colon): > 100 µM | TGI (KM12 colon): > 100 µM | GI50 (BT-549 breast): 16 µM | TGI (BT-549 breast): 72.6 µM | GI50 (MALME-3M melanoma): 11.3 µM | TGI (MALME-3M melanoma): 24.9 µM | GI50 (SK-MEL-2 melanoma): 40.1 µM | TGI (SK-MEL-2 melanoma): > 100 µM | GI50 (OVCAR-5 ovarian): 23.3 µM | TGI (OVCAR-5 ovarian): > 100 µM | GI50 (RPMI-8226 leukemia): 16.7 µM | TGI (RPMI-8226 leukemia): > 100 µM | GI50 (MDA-MB-468 breast): 3.78 µM | TGI (MDA-MB-468 breast): 20.2 µM | GI50 (CCRF-CEM leukemia): 2.82 µM | TGI (CCRF-CEM leukemia): 8.8 µM | GI50 (NCI-H522 lung): 1.47 µM | TGI (NCI-H522 lung): 3.01 µM | GI50 (SF-539 CNS): 16.8 µM | TGI (SF-539 CNS): 40.6 µM | GI50 (EKVX NSCLC): 58.3 µM | TGI (EKVX NSCLC): > 100 µM | GI50 (SK-MEL-28 melanoma): 54.4 µM | TGI (SK-MEL-28 melanoma): > 100 µM | GI50 (UACC-257 melanoma): 38.6 µM | TGI (UACC-257 melanoma): > 100 µM | GI50 (SW-620 colon): 11.3 µM | TGI (SW-620 colon): 25.7 µM | GI50 (NCI-H460 lung): 25.3 µM | TGI (NCI-H460 lung): > 100 µM | GI50 (HT29 colon): 11.8 µM | TGI (HT29 colon): 33 µM | GI50 (MDA-MB-435): 26.5 µM | TGI (MDA-MB-435): > 100 µM | GI50 (IGROV1 ovarian): 13.8 µM | TGI (IGROV1 ovarian): 51.4 µM | GI50 (NCI-H23 lung): 17.1 µM | TGI (NCI-H23 lung): 53 µM | GI50 (SN12C renal): 13.5 µM | TGI (SN12C renal): 34.3 µM | GI50 (OVCAR-8 ovarian): 16.2 µM | TGI (OVCAR-8 ovarian): 80.4 µM | GI50 (T-47D breast): 14.3 µM | TGI (T-47D breast): > 100 µM | GI50 (RXF 393 renal): 10.8 µM | TGI (RXF 393 renal): 72.5 µM | GI50 (TK-10 renal): 36.9 µM | TGI (TK-10 renal): > 100 µM | GI50 (SK-MEL-5 melanoma): 29.1 µM | TGI (SK-MEL-5 melanoma): > 100 µM | GI50 (K-562 leukemia): 6.46 µM | TGI (K-562 leukemia): > 100 µM | GI50 (HCC-2998 colon): 37.9 µM | TGI (HCC-2998 colon): > 100 µM | GI50 (786-0 renal): 31.5 µM | TGI (786-0 renal): > 100 µM | GI50 (SK-OV-3 ovarian): 62.6 µM | TGI (SK-OV-3 ovarian): > 100 µM | GI50 (M14 melanoma): 14.2 µM | TGI (M14 melanoma): 32.9 µM | GI50 (NCI/ADR-RES ovarian): 30.4 µM | TGI (NCI/ADR-RES ovarian): > 100 µM | GI50 (HOP-62 NSCLC): 47.7 µM | TGI (HOP-62 NSCLC): > 100 µM | GI50 (NCI-H226 lung): 31.5 µM | TGI (NCI-H226 lung): > 100 µM | GI50 (SNB-19 CNS): 51 µM | TGI (SNB-19 CNS): > 100 µM | GI50 (HCT-116 colon): 12.5 µM | TGI (HCT-116 colon): 41.2 µM | GI50 (U251 CNS): 18.4 µM | TGI (U251 CNS): 88.6 µM | GI50 (HL-60(TB) leukemia): 27.4 µM | TGI (HL-60(TB) leukemia): > 100 µM | GI50 (DU-145 prostate): 16.6 µM | TGI (DU-145 prostate): 53.1 µM | GI50 (OVCAR-4 ovarian): 20.1 µM | TGI (OVCAR-4 ovarian): 95.6 µM | GI50 (SR leukemia): 2.44 µM | TGI (SR leukemia): 19.7 µM | GI50 (MCF7 breast): 1.78 µM | TGI (MCF7 breast): 34.6 µM | GI50 (SNB-75 CNS): 4.47 µM | TGI (SNB-75 CNS): > 100 µM | GI50 (PC-3 prostate): 30.4 µM | TGI (PC-3 prostate): > 100 µM | GI50 (MDA-MB-231 breast): 20 µM | TGI (MDA-MB-231 breast): 88.4 µM | GI50 (A498 renal): > 100 µM | TGI (A498 renal): > 100 µM | GI50 (LOX IMVI melanoma): 1.61 µM | TGI (LOX IMVI melanoma): 3.41 µM | GI50 (HCT-15 colon): 9.36 µM | TGI (HCT-15 colon): 25.4 µM | GI50 (OVCAR-3 ovarian): 23 µM | TGI (OVCAR-3 ovarian): > 100 µM | GI50 (ACHN renal): 13.6 µM | TGI (ACHN renal): 46.2 µM | GI50 (CAKI-1 renal): 44.2 µM | TGI (CAKI-1 renal): > 100 µM | GI50 (A549 NSCLC): 18.8 µM | TGI (A549 NSCLC): > 100 µM
